PMC12129716, “Isolation of a Unique Monoterpene Diperoxy Dimer From Ziziphora clinopodioides subsp. bungeana Together With Triterpenes With Antidiabetic Properties” (Phytochemical Analysis, 2025)
“Also recorded” adds a separate entry of the source. Like-named read-outs stand apart in the source and are kept apart here.

Experiments:
α‐glucosidase [1] = test: α-Glucosidase inhibitory assay (p-nitrophenyl-α-D-glucopyranoside, microplate reader); type: biochemical; conditions: mean ± SEM, three independent experiments in triplicate
Description: After incubation (15 min, 37°C), the reaction was initiated by adding 20 μL of 2.5‐mM p‐nitrophenyl‐α‐D‐glucopyranoside. After an additional 15 min at 37°C, the reaction was stopped with 80 μL of 0.2‐M Na2CO3. The released p‐nitrophenol was quantified spectrophotometrically at λ 405 nm using a microplate reader. One set of mixtures prepared with an equivalent volume of methanol instead of the test samples was used as a control. Another set of mixtures prepared with an equivalent volume of phosphate buffer instead of the enzyme was used as a blank. The inhibition of the enzyme (%) was calculated according to the formula: […]. […] The results are summarized in Table 2 and expressed as the mean ± SEM for three independent experiments measured in triplicate.

[2] = biological target: protein tyrosine phosphatase 1B (PTP1B); conditions: cited from earlier work
L6 myotube cells = system: L6 myotube cells; parameters: method as in PMID 19548274; conditions: cited from earlier work
GLUT4 [3] = test: GLUT4 translocation to plasma membrane fraction in C2C12 myotubes (Western blot); type: cell-based, mouse; conditions: 5 μM, 24 h, C2C12 differentiated myotubes, vs DMSO control
Description: The C2C12 cell line was incubated in containers with a surface area of 75 cm^2 (tissue‐culture treated) to 100% confluence in full serum DMEM High Glucose medium. Then the culture medium was changed to DMEM High Glucose medium, supplemented with antibiotics, and 2% horse serum (Biosera) to start the differentiation of myoblasts into myocytes. The medium was renewed every 2 days, and the formation of myocytes was observed using a microscope. After 6 days of differentiation, the culture medium was changed to DMEM High Glucose serum‐free medium, and the test compounds were added at a non‐toxic concentration of 5 μM dissolved in DMSO. The effect of the test compounds on the viability of C2C12 myocytes was determined using a WST‐1 kit (Roche, Basel, Switzerland), according to the manufacturer's manual. The final concentration of DMSO in the medium was 0.1% (v/v). […]
The effects of the test compounds on the protein expression of GLUT4 in the total cellular fraction and on GLUT4 translocation to the plasma membrane fraction were measured using PAGE and Western blot with specific antibodies. […]
To quantify the effects of the test compounds on GLUT4 expression and translocation, the optical densities (OD) of the corresponding bands shown by Western blot analysis were calculated and expressed as a ratio of ODGLUT4 / ODβ‐actin for GLUT4 expression in whole‐cell lysates. […]

GLUT4 [4] = system: GLUT4; parameters: method as in PMID 17201692; conditions: 3T3-L1 adipocytes; cited from earlier work
α‐glucosidase [5] = conditions: cited from earlier work

% of inhibition (200 μM) (α‐glucosidase [1]) [%]	IC50 (α‐glucosidase [1]) [µM]	Compound	also measured
41.9 ± 4.1	> 200	C[C@@H]1CC[C@]2(C(=O)O)CC[C@]3(C)C(=CC[C@@H]4[C@@]5(C)CC[C@H](O)C(C)(C)[C@@H]5CC[C@]43C)[C@@H]2[C@]1(C)O [Compound 5, pomolic acid]	IC50 ([2]; read-out: PTP1B IC50): 3.9 ± 0.8 µM; 2-deoxy-D-[3H]-glucose uptake increase (L6 myotube cells): 1.6 fold; GLUT4 translocation (GLUT4/ATPA1 ratio in plasma membrane fraction) (GLUT4 [3]): increased; also recorded: tripling
26.8 ± 2.1	> 200	C[C@@H]1[C@H](O)C[C@]2(C(=O)O)CC[C@]3(C)C(=CCC4[C@@]5(C)CC[C@H](O)C(C)(C)C5CC[C@]43C)C2[C@H]1C (stereo partly drawn) [Compound 6, 21α‐hydroxyursolic acid]	
	163 ± 15.4	C[C@@H]1CC[C@]2(C(=O)O)CC[C@]3(C)C(=CC(=O)C4[C@@]5(C)CC[C@H](O)C(C)(C)C5CC[C@]43C)C2[C@H]1C (some centres unmarked) [Compound 7, 11‐oxoursolic acid]	
65.7 ± 4.1		C[C@H]1[C@H](C)CC[C@]2(C(=O)O)CC[C@]3(C)C(=CC[C@@H]4[C@@]5(C)CC[C@H](O)C(C)(C)[C@@H]5CC[C@]43C)[C@H]12 [Compound 9, ursolic acid]	IC50 ([2]; read-out: PTP1B IC50): 3.1 ± 0.2 µM; 2-deoxy-D-[3H]-glucose uptake increase (L6 myotube cells): 1.84 fold; Translocation of GLUT4 (GLUT4 [4]): enhanced
67.5 ± 1.4		CC1(C)CC[C@]2(C(=O)O)CC[C@]3(C)C(=CC[C@@H]4[C@@]5(C)CC[C@H](O)C(C)(C)[C@@H]5CC[C@]43C)[C@@H]2C1 [Compound 10, oleanolic acid]	
64.4 ± 2.0	45.3 ± 1	C=C(C)[C@@H]1CC[C@]2(C(=O)O)CC[C@]3(C)[C@H](CC[C@@H]4[C@@]5(C)CC[C@H](O)C(C)(C)[C@@H]5CC[C@]43C)[C@@H]12 [Compound 11, betulinic acid]	PTP1B IC50 [2]: 0.7 ± 0.03 µg/mL; IC50 ([2]; conversion of the μg/mL value, read-out: PTP1B IC50 (converted to μM)): 1.53 µM; GLUT4 translocation (GLUT4/ATPA1 ratio in plasma membrane fraction) (GLUT4 [3]): no activity

Further lines, the compound ahead of its results:

Compound	% of inhibition (200 μM) (α‐glucosidase [1]) [%]	IC50 (α‐glucosidase [1]) [µM]	also measured
CC1CC=C(C(C)(C)OOC23CC(C)CC=C2C(C)(C)OO3)C(=O)C1 (centres unmarked) [Compound 1, ziziphora diperoxy dimer]	6.0 ± 1.9	> 200	
CC1=C2C=C3CCC4C(C)(C)CCC[C@@]4(C)C3CC2OC1=O (some centres unmarked) [Compound 2, jolkinolide E]	25.0 ± 1.4	> 200	
C=C(C)[C@@H]1CC[C@]2(CO)CC[C@]3(C)[C@H](CC[C@@H]4[C@@]5(C)CC[C@H](O)C(C)(C)[C@@H]5CC[C@]43C)[C@@H]12 [Compound 3, betulin]	24.0 ± 6.0	> 200	
C=C(CO)[C@@H]1CC[C@]2(C(=O)O)CC[C@]3(C)C(CCC4[C@@]5(C)CC[C@H](O)C(C)(C)C5CC[C@]43C)C12 (some centres unmarked) [Compound 4, 30‐hydroxybetulinic acid]	34.0 ± 4.9	> 200	
CC1(C)CC[C@]2(C(=O)O)CC[C@]3(C)C(=CC(=O)C4[C@@]5(C)CC[C@H](O)C(C)(C)C5CC[C@]43C)C2C1 (some centres unmarked) [Compound 8, 11‐oxooleanolic acid]	49.9 ± 3.3	> 200	
CC1(C)[C@@H](O)CC[C@]2(C)[C@H]3C(=O)C=C4[C@@H]5C[C@@](C)(C(=O)O)CC[C@]5(C)CC[C@@]4(C)[C@]3(C)CC[C@@H]12 [glycyrrhetic acid]			α-Glucosidase inhibitory activity (α‐glucosidase [5]): inactive
